Common to all, as to type: cell-based
Test [1] has as its target T1, Bcl-xL (Homo sapiens, UniProt Q07817).
T1 construct: Measured levels of Bcl-xL protein of HCT116 cells treated with the tested compounds; host or cells: HCT116
The test is described as follows: HCT116 Bcl-xL degradation, capillary-based immunoassay (WES). The settings on record: for DC50: HCT116, 24 h, 9-point serial dilution; for remaining activity at 0.01 µM / remaining activity at 0.1 µM: HCT-116, 24 h, % of untreated cells; for remaining activity at 0.01 µM: HCT116, 10 nM; for remaining activity at 0.1 µM: HCT116, 100 nM. Put shortly: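 HCT116 cells treated 24 h with compound at 10/100 nM and/or 9-point dilution (quadruplicates), then lysed. Bcl-xL measured by capillary WES immunoassay, normalized to cofilin and expressed as % of untreated cells. DC50 from four-parameter curve fit.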

The test system of test [2] is EBC-1 lung cancer cell line. As to the kind of experiment: EBC-1 cell proliferation, CellTiter-Glo assay. As to conditions: Homo sapiens, 120 h; Ebc-1 cell viability, CTG assay, 5 days of treatment; read-out: CTG 5 day Ebc1 GI50. Put shortly: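 EBC-1 cells seeded at 1000 per well overnight, then exposed to 10-point dilutions (0.508 nM–10 μM final) for 5 days at 37 °C, in triplicate. ATP luminescence by CellTiter-Glo, normalised to untreated wells; GI50 from four-parameter logistic fit, runs valid only with at least one doubling.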

Test [3] addresses T2, HiBiT-tagged BCL-xL (Homo sapiens, UniProt Q07817).
T2 construct: expressed in transfected cells; host or cells: NCI-H1650 (ATCC No. CRL-5883), engineered HiBiT cell line
As to the kind of experiment: NCI-H1650 BCL-xL protein levels, Nano-Glo HiBiT Lytic Detection. The settings on record: NCI-H1650 expressing HiBiT-tagged BCL-xL, overnight incubation, read-out: Bcl-xl HIBIT NCIH1650 DC50. A digest of the protocol:
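NCI-H1650 cells expressing HiBiT-tagged BCL-xL (5000/well) were treated overnight at 37° C with 10 concentrations, final 0.508 nM-10 μM, in triplicate. Remaining BCL-xL measured by Nano-Glo HiBiT lytic luminescence, normalized to untreated cells; 50% values by four-parameter logistic fit.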
A general note: The HiBiT peptide binds its large partner to form an active luciferase.

T1 sequence (Q07817 whole entry): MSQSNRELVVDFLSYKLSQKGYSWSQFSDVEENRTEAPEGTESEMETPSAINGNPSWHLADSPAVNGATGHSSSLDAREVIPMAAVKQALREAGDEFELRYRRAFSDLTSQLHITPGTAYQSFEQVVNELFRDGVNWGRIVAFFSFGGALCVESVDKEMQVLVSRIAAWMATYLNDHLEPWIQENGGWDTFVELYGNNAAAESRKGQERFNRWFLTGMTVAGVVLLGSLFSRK
T2 sequence (Q07817 whole entry): as above

By remaining activity is commonly meant the signal under treatment as a percentage of the control signal. Usually GI50 stands for the concentration that inhibits growth by half. For `Cc1ncsc1-c1ccc([C@H](C)NC(=O)C2CC(O)CN2C(=O)C(NC(=O)CCCCCCCCCCCN2CCN(CC#Cc3ccc(OCCCc4sc(N5CCCc6c5nnc(Nc5nc7ccccc7s5)c6C)nc4C(=O)O)c(F)c3)CC2)C(C)(C)C)cc1` (stereo in doubt) [Example 31, 2-[3-(1,3-benzothiazol-2-ylamino)-4-methyl-6,7-dihydro-5H-pyrido[2,3-c]pyridazin-8-yl]-5-[3-[2-fluoro-4-[3-[4-[12-[[(1S)-1-[(2S,4R)-4-hydroxy-2-[[(1S)-1-[4-(4-methylthiazol-5-yl)phenyl]ethyl]carbamoyl]pyrrolidine-1-carbonyl]-2,2-dimethyl-propyl]amino]-12-oxo-dodecyl]piperazin-1-yl]prop-1-ynyl]phenoxy]propyl] thiazole-4-carboxylic acid], in test [1], the DC50 was determined as 1.22 nM, the remaining activity at 0.01 µM came to 11% and the remaining activity at 0.1 µM came out at 6%. In test [2], the GI50 was found to be 1 nM. Besides, in test [3], the DC50 came out at 0.4 nM.
In the same order, the values of `Cc1ncsc1-c1ccc([C@H](C)NC(=O)[C@@H]2C[C@@H](O)CN2C(=O)[C@@H](NC(=O)CCCCCCCCCCCCCCCN(C)CCOC23CC4(C)CC(C)(CC(Cn5ncc(-c6ccc(N7CCCc8c7nnc(Nc7nc9ccccc9s7)c8C)nc6C(=O)O)c5C)(C4)C2)C3)C(C)(C)C)cc1` [Example 1, 6-[3-(1,3-benzothiazol-2-ylamino)-4-methyl-6,7-dihydro-5H-pyrido[2,3-c]pyridazin-8-yl]-3-[1-[[3-[2-[[16-[[(1S)-1-[(2S,4R)-4-hydroxy-2-[[(1S)-1-[4-(4-methylthiazol-5-yl)phenyl]ethyl]carbamoyl]pyrrolidine-1-carbonyl]-2,2-dimethyl-propyl]amino]-16-oxo-hexadecyl]-methyl-amino]ethoxy]-5,7-dimethyl-1-adamantyl]methyl]-5-methyl-pyrazol-4-yl]pyridine-2-carboxylic acid] are 0.329 nM, 21%, 9%, 5 nM and 1 nM.
In the same order, the values of `Cc1ncsc1-c1ccc([C@H](C)NC(=O)[C@@H]2C[C@@H](O)CN2C(=O)[C@@H](NC(=O)CCCCCCCCN(C)CCOC23CC4(C)CC(C)(CC(Cn5ncc(-c6ccc(N7CCCc8c7nnc(Nc7nc9ccccc9s7)c8C)nc6C(=O)O)c5C)(C4)C2)C3)C(C)(C)C)cc1` [Example 5, 6-[3-(1,3-benzothiazol-2-ylamino)-4-methyl-6,7-dihydro-5H-pyrido[2,3-c]pyridazin-8-yl]-3-[1-[[3-[2-[[9-[[(1S)-1-[(2S,4R)-4-hydroxy-2-[[(1S)-1-[4-(4-methylthiazol-5-yl)phenyl]ethyl]carbamoyl]pyrrolidine-1-carbonyl]-2,2-dimethyl-propyl]amino]-9-oxo-nonyl]-methyl-amino]ethoxy]-5,7-dimethyl-1-adamantyl]methyl]-5-methyl-pyrazol-4-yl]pyridine-2-carboxylic acid] are 2.45 nM, 54%, 19%, 23 nM and 2 nM.
For `Cc1ncsc1-c1ccc(CNC(=O)C2C[C@@H](O)CN2C(=O)C(NC(=O)CCCCCC(=O)N2CCN(CC#Cc3ccc(OCCCc4sc(N5CCCc6c5nnc(Nc5nc7ccccc7s5)c6C)nc4C(=O)O)c(F)c3)CC2)C(C)(C)C)cc1` (stereo in doubt) [Example 15, 2-[3-(1,3-benzothiazol-2-ylamino)-4-methyl-6,7-dihydro-5H-pyrido[2,3-c]pyridazin-8-yl]-5-[3-[2-fluoro-4-[3-[4-[7-[[(1S)-1-[(2S,4R)-4-hydroxy-2-[[4-(4-methylthiazol-5-yl)phenyl]methylcarbamoyl]pyrrolidine-1-carbonyl]-2,2-dimethyl-propyl]amino]-7-oxo-heptanoyl]piperazin-1-yl]prop-1-ynyl]phenoxy]propyl] thiazole-4-carboxylic acid], in test [1], the DC50 was 0.462 nM, the remaining activity at 0.01 µM stood at 39% and the remaining activity at 0.1 µM came out at 23%. Also, in test [2], the GI50 came to 21 nM. Also, the DC50 in test [3] is above 1670 nM.
In the same order, the values of `Cc1ncsc1-c1ccc([C@H](C)NC(=O)[C@@H]2C[C@@H](O)CN2C(=O)[C@@H](NC(=O)CCCCCCCN(C)CCOC23CC4(C)CC(C)(CC(Cn5ncc(-c6ccc(N7CCCc8c7nnc(Nc7nc9ccccc9s7)c8C)nc6C(=O)O)c5C)(C4)C2)C3)C(C)(C)C)cc1` [Example 6, 6-[3-(1,3-benzothiazol-2-ylamino)-4-methyl-6,7-dihydro-5H-pyrido[2,3-c]pyridazin-8-yl]-3-[1-[[3-[2-[[8-[[(1S)-1-[(2S,4R)-4-hydroxy-2-[[(1S)-1-[4-(4-methylthiazol-5-yl)phenyl]ethyl]carbamoyl]pyrrolidine-1-carbonyl]-2,2-dimethyl-propyl]amino]-8-oxo-octyl]-methyl-amino]ethoxy]-5,7-dimethyl-1-adamantyl]methyl]-5-methyl-pyrazol-4-yl]pyridine-2-carboxylic acid] are 2.94 nM, 69%, 22%, 13 nM and 3 nM.

(Values after patent publication US20240376094A2, “SELECTIVE BCL-XL PROTAC COMPOUNDS AND METHODS OF USE” (Les Laboratoires Servier, priority 2021, published 2024).)
